Measurements taken from ChEMBL document CHEMBL1201862, “PubChem BioAssay data set” (2004).
Several values for one entry are separate records, joined by “and”; a condition that tells them apart may be missing. Equal values may be shown once.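 Five compound concentrations were applied to cells in 96-well plates for 48 hours; endpoints were derived by simple linear interpolation of the resulting dose-response curve. Here, GI50 denotes the concentration required for 50% inhibition of growth.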 Activity calls are given as the source filed them. Cut-off read from the data, not from the text of the source: active = GI50 up to about 1.1 µM and inactive = higher.

Key:
Assay in all cases: DTP human tumour cell line panel, 48 h
[1] = test system: SK-MEL-5
[2] = test system: 786-0
[3] = test system: SK-MEL-28
[4] = test system: DU-145
[5] = test system: COLO 205
[6] = test system: SW-620
[7] = test system: ACHN
[8] = test system: HT-29
[9] = test system: SN12C
[10] = test system: PC-3
[11] = test system: HCT-15
[12] = test system: OVCAR-5
[13] = test system: HCT-116
[14] = test system: MDA-N
[15] = test system: EKVX
[16] = test system: SR
[17] = test system: RPMI-8226
[18] = test system: SNB-75
[19] = test system: Hs-578T

Row | SMILES | GI50 [1] | GI50 [2] | GI50 [3] | GI50 [4] | GI50 [5] | GI50 [6] | GI50 [7] | GI50 [8] | GI50 [9] | GI50 [10] | GI50 [11] [µM] | GI50 [12] | GI50 [13] | GI50 [14] | GI50 [15] | GI50 [16] | GI50 [17] | GI50 [18] | GI50 [19]
1 | CCOC(=O)c1[nH]c2cccc3c2c1CC(Br)C3=O (centres undefined) | 18.5 µM (inactive) | 4.72 µM (inactive) | 20 µM (inactive) | 16.1 µM (inactive) | 14 µM (inactive) | 2.34 µM (inactive) | 6.98 µM (inactive) | 20 µM (inactive) | 16.7 µM (inactive) | 15.1 µM (inactive) | 3.72 | 19 µM (inactive) | 2.48 µM (inactive) | 11.6 µM (inactive) | 17.5 µM (inactive) | 2.14 µM (inactive) | 5.02 µM (inactive) | – | –
2 | O=C(CCC1CCCCC1)NCc1ccc(C(=O)O)cc1 | > 100 µM (inactive) | > 100 µM (inactive) | > 100 µM (inactive) | > 100 µM (inactive) | > 100 µM (inactive) | > 100 µM (inactive) | > 100 µM (inactive) | > 100 µM (inactive) | > 100 µM (inactive) | > 100 µM (inactive) | > 100 | > 100 µM (inactive) | > 100 µM (inactive) | > 100 µM (inactive) | 56.9 µM (inactive) | > 100 µM (inactive) | > 100 µM (inactive) | > 100 µM (inactive) | –
3 | NS(=O)(=O)c1nnc(NS(=O)(=O)c2ccc(F)cc2)s1 | > 100 µM (inactive) | > 100 µM (inactive) | > 100 µM (inactive) | > 100 µM (inactive) | > 100 µM (inactive) | > 100 µM (inactive) | > 100 µM (inactive) | – | > 100 µM (inactive) | – | > 100 | > 100 µM (inactive) | > 100 µM (inactive) | > 100 µM (inactive) | > 100 µM (inactive) | > 100 µM (inactive) | > 100 µM (inactive) | – | > 100 µM (inactive)
4 | c1cc(N(CCn2cccn2)CCn2cccn2)cc(N(CCn2cccn2)CCn2cccn2)c1 | > 100 µM (inactive) | > 100 µM (inactive) | > 100 µM (inactive) | – | > 100 µM (inactive) | > 100 µM (inactive) | > 100 µM (inactive) | – | > 100 µM (inactive) | – | > 100 | – | > 100 µM (inactive) | – | > 100 µM (inactive) | > 100 µM (inactive) | > 100 µM (inactive) | > 100 µM (inactive) | –
5 | N#Cc1c(-c2ccccc2)[nH]c(=O)n(C2OC(CO)C(O)C(O)C2O)c1=O (centres undefined) | > 100 µM (inactive) | > 100 µM (inactive) | > 100 µM (inactive) | > 100 µM (inactive) | > 100 µM (inactive) | > 100 µM (inactive) | > 100 µM (inactive) | > 100 µM (inactive) | > 100 µM (inactive) | > 100 µM (inactive) | > 100 | > 100 µM (inactive) | > 100 µM (inactive) | – | > 100 µM (inactive) | – | > 100 µM (inactive) | > 100 µM (inactive) and 75.7 µM (inactive) | > 100 µM (inactive)
6 | CCCCCCCCCCCCCCCCOCC(COP(=O)([O-])OCC[n+]1ccc(N(C)C)cc1)OCC (centres undefined) | 17.8 µM (inactive) | 18 µM (inactive) | 17.6 µM (inactive) | 16.5 µM (inactive) | 13.6 µM (inactive) | 18.3 µM (inactive) | 16.8 µM (inactive) | 13.9 µM (inactive) | 19.7 µM (inactive) | – | 18.2 | – | 11.3 µM (inactive) | 17 µM (inactive) | – | 4.95 µM (inactive) | 4.12 µM (inactive) | 2.97 µM (inactive) | 17.9 µM (inactive)
7 | COc1cc2c3cc1Oc1c(OC)c(OC)cc4c1[C@@H](Cc1ccc(O)c(c1)Oc1ccc(cc1)C[C@@H]3N(C)CC2)N(C)CC4.c1ccccc1 | 3.89 µM (inactive) | 12.8 µM (inactive) | 15.3 µM (inactive) | – | – | 16.2 µM (inactive) | 17.3 µM (inactive) | 10.7 µM (inactive) | 18.7 µM (inactive) | – | 12.3 | 30.6 µM (inactive) | 9.16 µM (inactive) | – | 13.9 µM (inactive) | 2.33 µM (inactive) | 16.3 µM (inactive) | 6.27 µM (inactive) | –
8 | COc1c(O)cc2c(c1O)C1O[C@H](CO)C(O)[C@H](O)[C@H]1OC2=O (some centres undefined) | > 100 µM (inactive) | > 100 µM (inactive) | > 100 µM (inactive) | > 100 µM (inactive) | > 100 µM (inactive) | > 100 µM (inactive) | > 100 µM (inactive) | > 100 µM (inactive) | > 100 µM (inactive) | > 100 µM (inactive) | > 100 | > 100 µM (inactive) | > 100 µM (inactive) | > 100 µM (inactive) | – | > 100 µM (inactive) | > 100 µM (inactive) | > 100 µM (inactive) | –
9 | COc1ccc(/C=C2\CN(C)CC3C2=NN(c2ccccc2)C3c2ccc(OC)cc2)cc1 (centres undefined) | > 100 µM (inactive) | 27.7 µM (inactive) | > 100 µM (inactive) | > 100 µM (inactive) | > 100 µM (inactive) | > 100 µM (inactive) | 77.1 µM (inactive) | > 100 µM (inactive) | > 100 µM (inactive) | – | > 100 | > 100 µM (inactive) | > 100 µM (inactive) | > 100 µM (inactive) | > 100 µM (inactive) | – | > 100 µM (inactive) | – | 42.8 µM (inactive)
